Assay results published in patent US6861528B2, “Carboxylated heterocyclic compounds and methods of synthesis” (R.T. Alamo Ventures I, LLC, priority 2002, dated 2005).

System: Protein Serine/Threonine Kinase PKC, non-selective
Assay: Protein Serine/Threonine Kinase PKC, non-selective enzyme assay ([32P]histone quantitated)
Format: biochemical
Settings: 1% DMSO vehicle, rat brain enzyme, histone substrate
Text: In this example, carboxyflosequinan was subjected to biochemical enzyme assays and radioligand binding assays to determine its percent inhibition of a variety of enzyme activities. Tamaoki and Nakano “Potent and specific inhibitors of protein kinase C of microbial origin” Biotechnology 8:732 (1990); Wilkinson et al. “Isoenzyme specificity of bisindolymaleimides, selective inhibitors of protein kinase C” Biochem. J. 294:335 (1993); Tamaki et al. “Staurosporine, a potent inhibitor of phospholipid/Ca++ dependent protein kinase” Biochem. Biophys. Res. Comm, 135:397 (1986). A brief summary of the conditions for each assay is provided below:
Protein Serine/Threonine Kinase PKC, non-selective: The enzyme was obtained from rat brain and the substrate was 370 μg/ml histone. The reaction was pre-incubated 5 min at 25° C., followed by a 15 min incubation at 25° C. in a buffer of 20 mM Tris-HCl, […] and 0.1 mM CaCl2.2HO, pH 7.4. [^32P]histone was quantitated.
FIG. 3 projects data for carboxyflosequinan in the assays described above. In these protein kinase assays, carboxyflosequinan was used in varying concentrations (in 1% DMSO as the vehicle). For the protein serine/threonine kinase (PKC, non-selective), carboxyflosequinan was tested at a concentrations of 100 μM, 300 μM, and 1000 μM. […] (See, FIG. 3).

Measured: inhibition of protein serine/threonine kinase (PKC, non-selective)

Cn1cc([S+]([O-])CC(=O)O)c(=O)c2ccc(F)cc21 (stereo not drawn) [carboxyflosequinan, 3-carboxymethylsulfinyl-7-fluoro-1-methyl-4-quinolone]
greater than 50%: 100 μM carboxyflosequinan | 300 μM carboxyflosequinan | 1000 μM carboxyflosequinan
